Laboratory results from the supplement of paper PMC13380429.

Assays:
Conditions in all cases: 72 h
[1] = test system: Calu-3; experiment: drug sensitivity score (DSS) for viability; higher = more toxic; extreme values may be limits of the assay
[2] = test system: Vero E6; experiment: as above
[3] = test system: Caco-2; experiment: as above
[4] = test system: HepG2; experiment: as above
[5] = test system: U2OS; experiment: as above
[6] = test system: Calu-3; experiment: cell viability relative to DMSO; higher = less toxic
[7] = test system: Vero E6; experiment: as above
[8] = test system: Caco-2; experiment: as above
[9] = test system: HepG2; experiment: as above
[10] = test system: U2OS; experiment: as above
[11] = test system: Calu-3; experiment: relative viability EC50 (midpoint between 100% and the lowest measured viability); higher = less toxic
[12] = test system: HepG2; experiment: as above
[13] = test system: U2OS; experiment: as above
[14] = test system: Caco-2; experiment: as above
[15] = test system: Vero E6; experiment: as above

## O=C(NCCCNc1nc(Nc2cccc(NC(=O)N3CCCC3)c2)ncc1I)c1cccs1 [BX-795]
[1]
  drug sensitivity score: 0
[2]
  drug sensitivity score: 1.8
[3]
  drug sensitivity score: 2.9
[4]
  drug sensitivity score: 3.5
[5]
  drug sensitivity score: 5.3
[6]; 1 nM
  cell viability: 93.4%
[6]; 10 nM
  cell viability: 97.3%
[6]; 100 nM
  cell viability: 102%
[6]; 1000 nM
  cell viability: 107%
[6]; 10000 nM
  cell viability: 89.2%
[7]; 1 nM
  cell viability: 97.8%
[7]; 10 nM
  cell viability: 98.4%
[7]; 100 nM
  cell viability: 97%
[7]; 1000 nM
  cell viability: 101%
[7]; 10000 nM
  cell viability: 61.7%
[8]; 1 nM
  cell viability: 98.2%
[8]; 10 nM
  cell viability: 98%
[8]; 100 nM
  cell viability: 105%
[8]; 1000 nM
  cell viability: 92.6%
[8]; 10000 nM
  cell viability: 63.7%
[9]; 1 nM
  cell viability: 96.9%
[9]; 10 nM
  cell viability: 90.4%
[9]; 100 nM
  cell viability: 96.7%
[9]; 1000 nM
  cell viability: 101%
[9]; 10000 nM
  cell viability: 34.7%
[10]; 1 nM
  cell viability: 104%
[10]; 10 nM
  cell viability: 99.3%
[10]; 100 nM
  cell viability: 100%
[10]; 1000 nM
  cell viability: 90.9%
[10]; 10000 nM
  cell viability: 31.2%
[11]
  relative viability EC50: > 10 µM
[12]
  relative viability EC50: 3.26 µM
[13]
  relative viability EC50: 2.1 µM

## Cc1cc(O)cc2c1O[C@](C)(CCC[C@H](C)CCC[C@H](C)CCCC(C)C)CC2 [D-delta-tocopherol]
[1]
  drug sensitivity score: 0
[3]
  drug sensitivity score: 0
[4]
  drug sensitivity score: 0
[5]
  drug sensitivity score: 0
[6]; 1 nM
  cell viability: 89.4%
[6]; 10 nM
  cell viability: 96.6%
[6]; 100 nM
  cell viability: 84.8%
[6]; 1000 nM
  cell viability: 93.8%
[6]; 10000 nM
  cell viability: 79.4%
[8]; 1 nM
  cell viability: 102%
[8]; 10 nM
  cell viability: 109%
[8]; 100 nM
  cell viability: 99.8%
[8]; 1000 nM
  cell viability: 103%
[8]; 10000 nM
  cell viability: 99.1%
[9]; 1 nM
  cell viability: 114%
[9]; 10 nM
  cell viability: 110%
[9]; 100 nM
  cell viability: 116%
[9]; 1000 nM
  cell viability: 103%
[9]; 10000 nM
  cell viability: 99.4%
[10]; 1 nM
  cell viability: 97.7%
[10]; 10 nM
  cell viability: 103%
[10]; 100 nM
  cell viability: 96.9%
[10]; 1000 nM
  cell viability: 106%
[10]; 10000 nM
  cell viability: 98%
[11]
  relative viability EC50: > 10 µM
[14]
  relative viability EC50: > 10 µM
[12]
  relative viability EC50: > 10 µM
[13]
  relative viability EC50: > 10 µM

## CC(=O)c1ccc2c(c1)[C@@H]1C=CC[C@@H]1[C@H](c1cc3c(cc1Br)OCO3)N2 [G-1]
[2]
  drug sensitivity score: 5.8
[3]
  drug sensitivity score: 2.4
[4]
  drug sensitivity score: 3.1
[5]
  drug sensitivity score: 2.5
[7]; 1 nM
  cell viability: 102%
[7]; 10 nM
  cell viability: 93.3%
[7]; 100 nM
  cell viability: 95.8%
[7]; 1000 nM
  cell viability: 84.8%
[7]; 10000 nM
  cell viability: 37.1%
[8]; 1 nM
  cell viability: 96.8%
[8]; 10 nM
  cell viability: 93.4%
[8]; 100 nM
  cell viability: 102%
[8]; 1000 nM
  cell viability: 98%
[8]; 10000 nM
  cell viability: 58.2%
[9]; 1 nM
  cell viability: 95.4%
[9]; 10 nM
  cell viability: 88.4%
[9]; 100 nM
  cell viability: 111%
[9]; 1000 nM
  cell viability: 105%
[9]; 10000 nM
  cell viability: 36.4%
[10]; 1 nM
  cell viability: 100%
[10]; 10 nM
  cell viability: 98.2%
[10]; 100 nM
  cell viability: 94.3%
[10]; 1000 nM
  cell viability: 102%
[10]; 10000 nM
  cell viability: 49.7%
[15]
  relative viability EC50: 1570 nM
[12]
  relative viability EC50: 3.53 µM
[13]
  relative viability EC50: 3.38 µM

## COc1cccc(OC)c1-c1cc(C(=O)N[C@@H](CC(C)C)C(=O)O)nn1-c1ccnc2cc(Cl)ccc12 [TC-NTR1-17]
[1]
  drug sensitivity score: 0
[3]
  drug sensitivity score: 0
[4]
  drug sensitivity score: 0
[6]; 1 nM
  cell viability: 117%
[6]; 10 nM
  cell viability: 102%
[6]; 100 nM
  cell viability: 93%
[6]; 1000 nM
  cell viability: 104%
[6]; 10000 nM
  cell viability: 104%
[8]; 1 nM
  cell viability: 103%
[8]; 10 nM
  cell viability: 99.6%
[8]; 100 nM
  cell viability: 100%
[8]; 1000 nM
  cell viability: 91.7%
[8]; 10000 nM
  cell viability: 99.9%
[9]; 1 nM
  cell viability: 102%
[9]; 10 nM
  cell viability: 106%
[9]; 100 nM
  cell viability: 97%
[9]; 1000 nM
  cell viability: 106%
[9]; 10000 nM
  cell viability: 106%
[11]
  relative viability EC50: > 10 µM
[14]
  relative viability EC50: > 10 µM
[12]
  relative viability EC50: > 10 µM
